Results: patent US20100197727A1, “Quinoline Derivatives as Antibacterial Agents” (priority 2005, published 2010)

Assays:
Test in all cases: Microtitre plate assay, IC90 determination
Type in all cases: cell-based
Conditions in all cases: 90% inhibitory concentration for bacterial growth
[1] = system: Enterococcus faecalis (ATCC14506)
Description: (§1) The bacteria used in this study were grown overnight in flasks containing 100 ml Mueller-Hinton Broth (Becton Dickinson—cat. no. 275730) in sterile de-ionized water, with shaking, at 37° C. Stocks (0.5 ml/tube) were stored at −70° C. until use. Bacteria titrations were performed in microtiter plates and colony forming units (CFUs) were determined In general, an inoculum level of approximately 100 CFUs was used for susceptibility testing.
(§2) Flat-bottom, sterile 96-well plastic microtiter plates were filled with 180 μl of sterile deionized water, supplemented with 0.25% BSA. Subsequently, stock solutions (7.8× final test concentration) of compounds were added in 45 μl volumes in column 2. Serial five-fold dilutions (45 μl in 180 μl ) were made directly in the microtiter plates from column 2 to reach column 11. Untreated control samples with (column 1) and without (column 12) inoculum were included in each microtiter plate. Depending on the bacteria type, approximately 10 to 60 CFU per well of bacteria inoculum (100 TCID50), in a volume of 100 μl in 2.8× Mueller-Hinton broth medium, was added to the rows A to H, except column 12. The same volume of broth medium without inoculum was added to column 12 in row A to H. The cultures were incubated at 37° C. for 24 hours under a normal atmosphere (incubator with open air valve and continuous ventilation). At the end of incubation, one day after inoculation, the bacterial growth was quantitated fluorometrically. Therefore resazurin (0.6 mg/ml) was added in a volume of 20 μl to all wells 3 hours after inoculation, and the plates were re-incubated overnight. A change in colour from blue to pink indicated the growth of bacteria. The fluorescence was read in a computer-controlled fluorometer (Cytofluor Biosearch) at an excitation wavelength of 530 nm and an emission wavelength of 590 nm. The % growth inhibition achieved by the compounds was calculated according to standard methods. The IC90 (expressed in μg/ml) was defined as the 90% inhibitory concentration for bacterial growth.

[2] = system: Listeria monocytogenes (ATCC49594)
Description: as §1, §2

[3] = system: Streptococcus pneumoniae (ATCC6305)
Description: as §1, §2

[4] = system: Enterococcus faecalis (ATCC29212)
Description: as §1, §2

[5] = system: methicilline resistant Staphylococcus aureus (MRSA) (a clinical isolate from the University of Antwerp)
Description: as §1, §2

[6] = system: Streptococcus pyogens (ATCC8668)
Description: as §1, §2

[7] = system: Staphylococcus aureus (ATCC25923)
Description: as §1, §2

[8] = system: Streptococcus mutans (ATCC33402)
Description: as §1, §2

[9] = system: Staphylococcus aureus (ATCC43300)
Description: as §1, §2

[10] = system: Bacillus subtilis (ATCC43639)
Description: as §1, §2

[11] = system: Staphylococcus aureus (ATCC29213)
Description: as §1, §2

[12] = system: Pseudomonas aeruginosa (ATCC27853)
Description: as §1, §2

[13] = system: Escherichia coli (ATCC25922)
Description: as §1, §2

[14] = system: Escherichia coli (ATCC35218)
Description: as §1, §2

Structure (SMILES)	IC90 SPN 6305 [3] [µg/mL]	IC90 EFA 29212 [4] [µg/mL]	IC90 SPY 8668 [6] [µg/mL]	IC90 STA 29213 [11] [µg/mL]	IC90 PAE 27853 [12] [µg/mL]	also measured
COc1nc2ccc(Br)cc2cc1C(c1ccccc1)C(O)(CC[N+](C)(C)C)c1ccccc1.[I-] (single isomer, unassigned) [Compound 10]	16.3	5.8	1.3	14.5	–	IC90 EFA 14506 [1]: 12.9 µg/mL; IC90 LMO 49594 [2]: 1.2 µg/mL; IC90 STA RMETH [5]: 8.2 µg/mL; IC90 STA 25923 [7]: 11.5 µg/mL; IC90 SMU 33402 [8]: 10.3 µg/mL; IC90 STA 43300 [9]: 5.8 µg/mL; IC90 BSU 43639 [10]: 10.3 µg/mL
COc1nc2ccc(Br)cc2cc1C(c1ccccc1)C(O)(CC[N+](C)(C)C)c1ccccc1.[I-] (single isomer, unassigned) [Compound 57]	16.3	12.9	12.9	12.9	–	IC90 EFA 14506 [1]: 12.9 µg/mL; IC90 LMO 49594 [2]: 2.6 µg/mL; IC90 STA RMETH [5]: 12.9 µg/mL; IC90 STA 25923 [7]: 12.9 µg/mL; IC90 SMU 33402 [8]: 12.9 µg/mL; IC90 STA 43300 [9]: 12.9 µg/mL; IC90 BSU 43639 [10]: 2.6 µg/mL
COc1nc2ccc(Br)cc2cc1C(c1ccccc1)C(O)(CC[N+](C)(C)C)c1cccc2ccccc12.[I-] (single isomer, unassigned) [Compound 121]	3.5	2.8	3.5	0.4	13.9	IC90 EFA 14506 [1]: 2.8 µg/mL; IC90 LMO 49594 [2]: 0.5 µg/mL; IC90 STA RMETH [5]: 2.2 µg/mL; IC90 STA 25923 [7]: 2.2 µg/mL; IC90 SMU 33402 [8]: 2.8 µg/mL; IC90 ECO 25922 [13]: 12.4 µg/mL; IC90 STA 43300 [9]: 3.5 µg/mL; IC90 BSU 43639 [10]: 2.8 µg/mL
CCCC[N+](C)(C)CCC(O)(c1cccc2ccccc12)C(c1ccccc1)c1cc2cc(Br)ccc2nc1OC.[I-] (single isomer, unassigned) [Compound C]	–	–	–	0.4	–	–
COc1nc2ccc(Br)cc2cc1C(c1ccccc1)C(O)(CCc1ccccc1)CC[N+](C)(C)C.[I-] (single isomer, unassigned) [Compound F]	–	–	–	2.1	–	–
COc1nc2ccc(Br)cc2cc1C(c1ccccc1)C(O)(CCC[N+](C)(C)C)c1cccc2ccccc12.[I-] (single isomer, unassigned) [Compound G]	–	–	–	0.4	–	–
COc1nc2ccc(Br)cc2cc1C(c1ccccc1)C(O)(CCCC[N+](C)(C)C)c1ccc2ccccc2c1.[I-] (single isomer, unassigned) [Compound H]	–	–	–	0.5	–	–
COc1nc2ccc(Br)cc2cc1C(c1ccccc1)C(O)(CCCC[N+](C)(C)C)c1ccccc1.[I-] (single isomer, unassigned) [Compound K]	–	–	–	2.1	–	–
CSc1nc2ccc(Br)cc2cc1C(c1ccccc1)C(O)(CCCC[N+](C)(C)C)c1ccccc1.[I-] (single isomer, unassigned) [Compound L]	2.2	2.2	0.4	2.2	2.2	IC90 LMO 49594 [2]: 2.2 µg/mL; IC90 SMU 33402 [8]: 0.4 µg/mL; IC90 BSU 43639 [10]: 2.2 µg/mL; IC90 ECO 35218 [14]: 11 µg/mL
COc1nc2ccc(Br)cc2cc1C(c1ccccc1)C(O)(CC[N+](C)(C)C)c1ccsc1.[I-] (single isomer, unassigned) [Compound M]	8.34	–	8.34	1.7	–	–
COc1nc2ccc(Br)cc2cc1C(c1ccc(Cl)cc1)C(O)(CC[N+](C)(C)C)c1ccccc1.[I-] (single isomer, unassigned) [Compound N]	1.75	1.75	1.75	1.8	9.87	IC90 ECO 35218 [14]: 17.55 µg/mL
COc1nc2ccc(Br)cc2cc1C(c1ccccc1)C(O)(CC[N+](C)(C)C)c1cccc(F)c1.[I-] (single isomer, unassigned) [Compound O]	1.7	8.53	1.7	1.9	–	–
COc1nc2ccc(Br)cc2cc1C(c1ccccc1)C(O)(CC[N+](C)(C)C)c1ccc2ccccc2c1.[I-] (single isomer, unassigned) [Compound Q]	1.8	1.8	1.8	1.8	4.53	–
COc1nc2ccc(Br)cc2cc1C(c1ccccc1)C(O)(CCC[N+](C)(C)C)c1ccc2ccccc2c1.[I-] (single isomer, unassigned) [Compound S]	0.47	1.85	1.85	0.4	1.85	–
CSc1nc2ccc(Br)cc2cc1C(c1ccccc1)C(O)(CC[N+](C)(C)C)c1ccccc1.[I-] (single isomer, unassigned) [Compound T]	1.7	3.8	1.7	1.7	8.5	–
COc1nc2ccc(Br)cc2cc1C(c1ccccc1)C(O)(CCCC[N+]1(C)CCCCC1)c1ccccc1.[I-] (single isomer, unassigned) [Compound U]	2.09	1.86	1.86	1.9	9.33	–
COc1nc2ccc(Br)cc2cc1C(c1ccccc1)C(O)(CCc1ccccc1)CC[N+](C)(C)C.[I-] (single isomer, unassigned) [E]	–	–	–	2.1	–	–
COc1nc2ccc(Br)cc2cc1C(c1ccccc1)C(O)(CCCC[N+](C)(C)C)c1ccc2ccccc2c1.[I-] (single isomer, unassigned) [I]	–	–	–	2.9	–	–
COc1nc2ccc(Br)cc2cc1C(c1ccccc1)C(O)(CCCC[N+](C)(C)C)c1ccccc1.[I-] (single isomer, unassigned) [J]	–	–	–	2.1	–	–
COc1nc2ccc(Br)cc2cc1C(c1ccccc1)C(O)(CCC[N+](C)(C)C)c1ccc2ccccc2c1.[I-] (single isomer, unassigned) [R]	0.46	1.17	0.74	0.4	2.07	IC90 ECO 35218 [14]: 9.27 µg/mL
